Source: patent publication US20250295109A1, “UNIVERSAL SYNERGIST FOR INSECT ATTRACTANTS” (North Carolina State University, priority 2022, published 2025)

Tests used:
Assay type in all cases: in vivo
Drosophila melanogaster = assay: dual choice free flight cage trapping assay with glass vial traps (water or balsamic vinegar); details: 24 hours
Source text: FIG. 4 is a schematic drawing showing a design for a dual choice free flight cage trapping assay used herein to determine the effect of nonanal on trapping fruit flies (Drosophila melanogaster). A 13 centimeter (cm) by 19 cm by 9.5 cm cage with a mesh opening on the top is equipped with two glass 5.5 cm by 2.5 cm glass vial traps, each equipped with a lid fitted with a truncated pipette tip. At the bottom of each glass vial trap is either water or a fermentation attractant (i.e., balsamic vinegar). Inside each glass vial trap is another smaller glass vial containing either a solution of nonanal in dimethyl sulfoxide (DMSO) or a DMSO without nonanal. The attraction of starved Drosphila melanogaster males and females to balsamic vinegar (Bellino, Cento Fine Foods, Deptford, New Jersey, United States of America) with and without 1 μg nonanal was studied in a dual choice trapping assay. Nonanal was placed in a glass vial, separately from the balsamic vinegar, but adjacent to it. In all experiments, 20 3-4 day old, 24 hours starved flies (males and females) were given a choice between two traps. […] After 24 hours, flies in both traps were counted. Various amounts of nonanal were dissolved in DMSO, and then 10 μl of nonanal DMSO solution were placed in a separate glass vial (12×32 mm, Thermo Fisher Scientific. Waltham, Massachusetts, United States of America) adjacent to 0.4 ml of water in one trap. The other trap in the dual choice trapping assay contained 0.4 ml of water plus a separate vial containing 10 μl of DMSO. Twenty 3-4 day old, 24 hours starved flies (males and females) were given a choice between the two traps. After 24 hours, flies in both traps were counted. […] N=10. […] The attraction of starved Drosphila melanogaster males and females to balsamic vinegar to which various amounts of nonanal were added is shown in FIG. 6. Various amounts of nonanal were dissolved in DMSO, and then 10 μl of nonanal DMSO solution were placed in a separate glass vial adjacent to 0.4 ml of balsamic vinegar in one trap. […] After 24 hours, flies in both traps were counted. […]

Musca domestica = assay: dual choice trapping cage assay with commercial fly trap attractant (STARBAR); details: 24 hours
Source text: FIG. 8A is a schematic drawing showing a design for a dual choice free flight cage trapping assay used to determine the effect of nonanal on the trapping of house flies (Musca domestica) when used in combination with a commercial house fly lure. At the right of the drawing is shown a schematic of a 30 centimeter (cm) by 30 cm cage containing two commercial house fly traps (Trap 1 and Trap 2), each including a plastic cup fitted with a transparent lid that has an opening for the flies. An enlarged view of an individual trap is shown to the left side of the drawing. Inside each trap, at the bottom, is placed a commercial fly attractant as a lure. In addition, each trap is fitted with a 1.5 mL vial containing either 50 microliters (μL) dimethyl sulfoxide (DMSO) or 50 μL of a solution of nonanal in DMSO. For each experiment, 20 house flies are used.
The attraction of fed Musca domestica males and females to a commercial lure and a laboratory-built trap to which various amounts of nonanal were added is shown in […]. […] After 24 hours, house flies in both traps were counted. […]
The other trap in the dual choice trapping assay contained 50 mL of the commercial fly trap attractant lure plus a 50 μl of DMSO only. […] After 24 hours, flies in both traps were counted.

[1] = test system: male corn earworm (CEW, Helicoverpa zea); assay: field trapping of male CEW in Hartstack traps, nonanal and/or 1-hexanol
Source text: FIG. 11 is a graph showing the results of a field trapping study of male com earworm (CEW, Helicoverpa zea) using traps containing a dispenser containing a solution of 0.5% nonanal and/or 0.5% 1-hexanol alone or also containing a dispenser for a commercial CEW sex pheromone lure. Effectiveness is reported as number of male CEW capture per day per trap.
To determine the effects of 1-hexanol and combinations of 1-hexanol and nonanal, Hartstack traps with or without the commercial CEW sex pheromone lure and with or without one or both of nonanal and 1-hexanol were placed in sorghum or corn fields. Nonanal and 1-hexanol, if present, were present at 0.5% on a weight to weight basis with the major component of the commercial pheromone lure.

CCCCCCCCC=O [nonanal]
attraction of flies to balsamic vinegar at highest amount of nonanal (Drosophila melanogaster; highest amount of nonanal (1000 μg) in DMSO adjacent to balsamic vinegar): interferes with attraction of flies to balsamic vinegar | flies trapped, nonanal trap versus trap without nonanal (Drosophila melanogaster; increasing amount of nonanal (e.g., 1 μg) in DMSO in vial adjacent to 0.4 ml balsamic vinegar, other trap balsamic vinegar and DMSO): more flies are trapped | flies trapped, nonanal trap versus trap without nonanal (Drosophila melanogaster; nonanal at various concentrations in DMSO (10 μl) in vial adjacent to 0.4 ml water, other trap water and DMSO only, starved males and females): does not trap any more flies than traps containing water and DMSO only | house flies trapped, nonanal trap versus trap without nonanal (Musca domestica; increasing amount of nonanal in 50 μl DMSO with 50 mL commercial fly trap attractant lure, other trap lure plus DMSO, fed flies): more house flies are trapped | attraction of house flies to commercial fly trap attractant lure at too much nonanal (Musca domestica; too much nonanal in 50 μl DMSO with 50 mL commercial fly trap attractant lure): interferes with attraction of flies to the commercial fly trap attractant lure | effectiveness in trapping male CEW, without commercial pheromone lure ([1]; 0.5% w/w level, without the commercial pheromone lure, sorghum or corn fields): not effective in trapping male CEW | effectiveness of commercial lure in trapping male CEW when combined ([1]; 0.5% w/w with major component of commercial pheromone lure, used in combination with the commercial lure): improved its effectiveness
